Drawing on a melting point compilation (Tetko et al.; mined from patent text by program, amines drawn as free bases though some values may be those of a salt), this text covers melting point for 87 compounds.

`CCCCC1=C(C#N)N(O)CS1` yielded a melting point of 118 to 120 °C.

For the compound `CC(c1oc2ccccc2c(=O)c1-c1cccc(F)c1)n1nc(-c2csc(CO)c2)c2c(N)ncnc21` (configuration not stated), the melting point was 154 to 156 °C.

Consider `Cn1cc(O)c(=O)c2ccc(F)cc21`, for which the melting point was in the range of 283 to 285 °C.

`Nc1cc2c(cc1F)OC(=O)CN2` showed a melting point of more than 250 °C.

Compound `CN(C)c1ccc(N(c2ccc(N(C)C)cc2)C2(c3ccc(N(C)C)cc3)OC(=O)c3cc(N(C)C)ccc32)cc1` (configuration not stated) gave a melting point of 86 to 92 °C.

Compound `O=C(O)CCCNC(=O)c1ccccc1NC(=O)c1ccccc1O` showed a melting point of 173 to 174 °C.

`O=C(O)COc1ccc(SCc2ccc(-c3ccc(C(F)(F)F)cc3)cc2)c2c1CCC2` came in with a melting point of 158 to 159 °C.

Take `O=C(Nc1cccc(O)c1)O[C@@H]1CN=C(c2ccccc2)O[C@H]1c1ccccc1` (racemic): the melting point was determined as 170 °C.

In the case of `CC1(C)CC(C)(C)c2cc(Cl)c(O)cc21`, the melting point is 52 °C.

With `COc1ccc(C(=O)O)c2c1OCCO2`, the melting point lay in the range of 224 to 226 °C.

`NC(=O)c1nc2n(n1)-c1ccc(Cl)cc1C(c1ccccc1)=NC2`: the melting point lay in the range of 252 to 254 °C.

Turning to `Nc1cccc(C(=O)c2ccc(-c3ccc(C(=O)c4cccc(N)c4)cc3)cc2)c1`, the melting point is 217 to 218 °C.

The compound `COc1cc(Nc2nc(N3CCOCC3)nc(-n3c(C(F)F)nc4c(OC)cccc43)n2)ncn1` came in with a melting point of 256 to 259 °C.

`NC(=O)Cn1c(-c2ccccn2)nc2cccnc21`: the melting point was 275 to 278 °C.

`CCOC(=O)OC1=C([C@H]2CC[C@H](c3ccc(Cl)cc3)CC2)C(=O)c2ccccc2C1=O` had a melting point of 145 to 149 °C.

The compound `O=c1[nH]c2ncc(-c3ccc(-n4cccn4)cc3)nc2n1CC1CCOCC1` displayed a melting point of 294 to 296 °C.

Take `CCC1=Nc2c(C)nn(C)c2C2=NC(C)CN12` (configuration not stated): the melting point is 153 to 155 °C.

Compound `CCOC(=O)c1c(N)c2cccnc2n(C)c1=O` had a melting point of 203 to 206 °C.

The compound `CON=C(C(=O)OC)c1cc(Cl)nc(NC=O)n1` displayed a melting point of 165 to 172 °C.

`COc1cc2c(cc1OC)CN(CC(=O)Nc1ccc(N)cc1)CC2` displayed a melting point of 185 °C.

The compound `CSc1cc(C)nc(SC)c1NC(=O)CCCSc1nc2ccccc2s1` yielded a melting point of 131 to 133 °C.

In turn, `O=S1(=O)N=C2CCCN2c2ccc(Oc3cccc(-c4ccco4)c3)cc21` showed a melting point of 186 to 189 °C.

`Cn1cc(-c2ccc3ncn(Cc4ccc5ncccc5c4)c3n2)cn1` had a melting point of 150 to 152 °C.

For the compound `CN1CCOC(CN2C(=O)C3(COc4cc5c(cc43)OCCO5)c3ccccc32)C1` (configuration not stated), the melting point lay within 85 to 90 °C.

For `CC(C)(C)c1cc(C(=O)Nc2ccccc2NC(=O)N(Cc2ccccc2)Cc2ccccc2)cc(C(C)(C)C)c1O`, the melting point was in the range of 187 to 189 °C.

`NC(=S)Nc1ccc(Cl)c(Cl)c1Cl` registered a melting point of 115 to 117 °C.

As for `CC(C)C1(C)Cc2cc(O)c(Cl)c(Cl)c2C1=O` (configuration not stated), the melting point is 215 °C.

Compound `O=C(CCCCCNC(=O)CCCc1ccccc1)NO` displayed a melting point of 92 to 93 °C.

`COC(=O)C1=C(C)NC(C)=C(C(=O)OCCCCCCS(=O)c2nc(C)cs2)C1c1cccc([N+](=O)[O-])c1` (configuration not stated) returned a melting point of 81 to 83 °C.

Compound `CCOC(=O)C(=CNc1ccc(F)cc1F)C(=O)c1c(F)cc(Cl)c(F)c1Cl` returned a melting point of 84 to 86 °C.

Consider `O=C(C=Cc1cc(O)c(O)c([N+](=O)[O-])c1)c1ccccc1O`, for which the melting point lay within 231 to 234 °C.

For `Cc1nc(N)c2nc(C)n(CCNC(=O)N3CCOCC3)c2c1C`, the melting point lay within 219 to 221 °C.

With `CCc1cc(OCc2ccc(-c3ccccc3-c3nnnn3-c3ccc([N+](=O)[O-])cc3)cc2)c2c(n1)CCCC2`, the melting point fell in the range of 205 to 207 °C.

`Cc1cc(C)cc(Sc2c(C(C)C)c(=O)[nH]c(=O)n2CC2=CCC(CO)C2)c1` (configuration not stated) had a melting point of 147 to 148 °C.

In turn, `CN(C)c1nc(-c2cccc3ccccc23)co1` returned a melting point of 30 to 32 °C.

With `O=C(CSCCOc1ccccc1)c1ccc2[nH]c3ncc(Cl)cc3c2c1`, the melting point was in the range of 167 to 168 °C.

In turn, `N#Cc1ccc2[nH]c(-c3ccc(Cl)c(Cl)c3)c(CCCC(=O)O)c2c1` had a melting point of 190 to 195 °C.

For the compound `O=C(O)C(Cc1ccccc1)Nc1ncnc(-c2ccc(OCc3ccccc3)cc2)c1CO` (configuration not stated), the melting point lay within 114 to 117 °C.

`Sc1nc2cc(C(c3ccccc3)n3ccnc3)ccc2[nH]1` (configuration not stated): the melting point stood at 260 °C.

Compound `CC(C)n1nc(C(Br)C(=O)c2ccccc2)ccc1=O` (configuration not stated) registered a melting point of 98 to 100 °C.

The compound `O=C(O)c1c(Cl)nc(Cl)nc1Cl` gave a melting point of 150 °C.

Take `O=C1CCN2CC3c4ccccc4CCc4cccc(c43)C2C1` (configuration not stated): the melting point lay in the range of 163 to 165 °C.

On to `O=S(=O)(Nc1cccc2cc(-c3ccccn3)[nH]c12)c1cccs1`, for which the melting point lay in the range of 161 to 162 °C.

Consider `O=C(O)/C=C/C=C(c1ccccc1C(F)(F)F)c1ccccc1C(F)(F)F`, for which the melting point is 162 to 164 °C.

`CCCC(=O)Nc1ccc(OC)c(C(C)=O)c1` showed a melting point of 113 °C.

As to `CCOC(=O)/C=C/c1cn(-c2ccc(C(F)(F)F)cn2)nc1C`, the melting point lay within 131 to 132 °C.

For `COC(=O)C1=C(C)NC(C)=C(C(=O)OCC2CCC(=O)O2)C1c1ccccc1[N+](=O)[O-]` (configuration not stated), the melting point was in the range of 132 to 134 °C.

Compound `Nc1cc2c(cc1[N+](=O)[O-])[nH]c(=O)c(=O)n2C1CCCCC1` yielded a melting point of more than 260 °C.

With `CCOCc1nc2c(N)nc3cccnc3c2n1CC1(O)CCCCC1`, the melting point was in the range of 171 to 173 °C.

Compound `CC(=O)Nc1ccc(NC(=O)C=C2CC(C(=O)O)Nc3cc(Cl)cc(Cl)c32)cc1` (racemic) gave a melting point of 185 °C.

`COC(=O)c1cc(Cl)cc(Cl)n1` gave a melting point of 75 to 77 °C.

Take `CCCCc1ccc(-c2ccc(-c3ccc(CC)cc3)cc2F)s1`: the melting point was determined as 37 °C.

Turning to `CC(C)(C)NS(=O)(=O)c1cc(C(=O)O)ccc1C(=O)O`, the melting point was 210 to 213 °C.

The compound `Cc1ccc(C)n1C(=O)c1cc2cc(Br)ccc2o1` displayed a melting point of 115 to 116 °C.

For the compound `CC(C)(C)CC(C)(C)c1cc(-n2nc3ccc(-c4cccnc4)cc3n2)c(O)c(C(C)(C)c2ccccc2)c1`, the melting point is 126 to 128 °C.

Turning to `O=[N+]([O-])c1cc(F)cc2c1OCC2`, the melting point lay within 113 to 114 °C.

`CCOCc1nc2c(N)nc3ccccc3c2n1CC1(OCCS(C)(=O)=O)CCCC1` showed a melting point of 163 to 165 °C.

Compound `CC(C)C[C@H]1C[C@]2(O)C[C@@H](OC2=O)[C@@H]1OC(=O)c1ccccc1` registered a melting point of 71 to 72 °C.

As for `CC(C)c1cccc(S(=O)(=O)n2c(CCCCC(=O)O)cc3cc(C(F)(F)F)ccc32)c1`, the melting point was found to be 119 °C.

In the case of `CCCNC(=O)Nc1cc(C(C)(C)C)c2c(c1)C(C)(C)CO2`, the melting point lay within 193 to 194 °C.

In turn, `CCc1ccc2c(c1)C=Cc1oc(C)nc1C2c1cn(Cc2cccc(C(=O)Nc3n[nH]c(C(F)(F)F)n3)c2)c(=O)[nH]c1=S` (configuration not stated) showed a melting point of 142 to 145 °C.

On to `N#CC1=Cc2ccccc2C(N2CCN(N=Cc3ccccn3)CC2)c2ccccc21` (configuration not stated), for which the melting point lay within 182 to 184 °C.

`O=C(NC(=O)N(SC(Cl)(Cl)Cl)c1ccc(Oc2ccc(C(F)(F)F)cc2Cl)cc1)c1ccccc1Cl` gave a melting point of 68 to 71 °C.

With `COc1ccc2cc(C(=O)CCC(=O)c3ccccc3)ccc2c1`, the melting point came out at 164 °C.

`CS(=O)(=O)c1ccccc1-c1cc(F)cc(OCc2ccc3c(-c4ccoc4)cc(C#N)nc3c2)c1`: the melting point fell in the range of 186 to 187 °C.

In the case of `O=C1c2ccccc2-n2cnc(-c3nc(CN4Cc5ccccc5C4)no3)c2[C@@H]2CCN12`, the melting point was 210 to 213 °C.

As for `CC(C)N(Cc1ccccc1)c1ncnc2c(N3CCOCC3)nc(N3CCC(N(C)C)CC3)nc12`, the melting point is 122 to 125 °C.

The compound `O=C(O)c1ccc(-c2nc(-c3ccccc3)co2)cc1` had a melting point of 275 to 276 °C.

Consider `O=c1[nH]c2ccc(Cl)cc2n1-c1ccc(Cl)cc1`, for which the melting point came to 239 °C.

`COc1ccc(Cl)cc1Cn1nc(-c2ccc(C(F)(F)F)cc2)oc1=O`: the melting point lay within 144 to 145 °C.

For the compound `COc1cc(C=CC(=O)c2cccc(O)c2)cc(OC)c1`, the melting point was in the range of 126 to 127 °C.

`COC(=O)COc1cc(C(C)C)c(SC#N)cc1C` registered a melting point of 67 to 69 °C.

In turn, `CCOP(=O)(COCCC(CO)On1cnc2c(N)ncnc21)OCC` (configuration not stated) displayed a melting point of 86 to 88 °C.

As for `Cc1nc2nc(Cl)c(Cl)nc2s1`, the melting point is 58 to 60 °C.

`CN(Cc1ccccc1)C1CCN(c2c(F)cc([N+](=O)[O-])c(F)c2CCl)C1` (configuration not stated) had a melting point of 94 to 98 °C.

In turn, `CC(C)(C)OC(=O)Nc1ccn2nc(N3CCCC3)nc2c1` returned a melting point of 216 to 219 °C.

With `CCn1c(=O)n(O)c(=O)c2cc(F)c(N3CCN(C)CC3)cc21`, the melting point fell in the range of 132 to 134 °C.

For the compound `CCOC(=O)C1=C(NC(=O)Nc2ccc([N+](=O)[O-])c(C(=O)OCC)c2)CCC1`, the melting point fell in the range of 152 to 155 °C.

Compound `N#CC(CC(=O)CCl)(c1ccccc1)c1ccccc1` had a melting point of 102 to 104 °C.

Compound `CCCc1c(OCCCCCOc2ccc3nc(CCC(=O)OCC)ccc3c2CCC(=O)OCC)ccc2c1OCCC2=O` gave a melting point of 59 to 61 °C.

Take `CN1Cc2c(C(N)=O)ncn2-c2cccc(Br)c2C1=O`: the melting point lay in the range of 278 to 279 °C.

Compound `O=c1c2c(oc3c1nnn3Cc1ccccc1)CCS2` showed a melting point of 157 to 160 °C.

As to `CCCN(CCC)Cc1coc(-c2ncn3c2CN(C)C(=O)c2sccc2-3)n1`, the melting point was in the range of 110 to 111 °C.

`C=C=CC1(OC(C)=O)CCC2C3CCc4cc(OC)ccc4C3CCC21C` (configuration not stated): the melting point was 89 to 90 °C.

`Cc1ccc(C(=O)NCc2ccc3c(c2)C(=O)N(C2CCC(=O)NC2=O)C3=O)cc1` (configuration not stated) displayed a melting point of 194 to 196 °C.

With `CN(C(=O)OC(C)(C)C)c1cc(Oc2ccc(C(F)(F)F)cc2)ccc1[N+](=O)[O-]`, the melting point is 92 to 93 °C.

On to `C#Cc1ccc(C(=O)Cl)cc1`, for which the melting point was in the range of 32 to 34 °C.
